Reference: US20260166159A1, “KRAS G12D DEGRADATION AGENT, AND PREPARATION METHOD AND USE THEREFOR” (LEADINGTAC PHARMACEUTICAL (SHAOXING) CO., LTD., priority 2022, published 2026)

These molecules were tested on phosphorylated ERK (assay: KRAS G12D-mediated phosphorylated ERK inhibition assay (AlphaLISA), A427). Conditions: Homo sapiens, A-427; A427 cells; class symbols; read-out: pERK (A427) IC50.
Assay type: cell-based
Description: The relative amounts of phosphorylated ERK and total ERK in the samples were separately determined according to the test methods provided in the instructions of the AlphaLISA SureFire Ultra p-ERK 1/2 (Thr202/Tyr204) kit (PerkinElmer) and the AlphaLISA SureFire Ultra TotalERK 1/2 kit (PerkinElmer).
The experimental procedures for the assay of the phosphorylated ERK and total ERK were as follows: 10 μL of each sample was added to a 384-well plate (Greiner), and 5 μL of the prepared Acceptor Beads (PerkinElmer) mixed solution (containing 50× Acceptor Beads 615, Activation Buffer, and equal volumes of Reaction Buffer 1 and Reaction Buffer 2) was added to each well; and the plate was incubated at room temperature for 2 h. Then 5 μL of 1× Donor Beads (PerkinElmer) diluted with Dilution Buffer was added to each well, and the plate was incubated at room temperature overnight. After the incubation was completed, AlphaLISA signal values for the phosphorylated ERK and total ERK were separately measured on an EnVision microplate reader (PerkinElmer) in the AlphaScreen standard mode. The following formula was adopted: phosphorylated ERK correction value=phosphorylated ERK AlphaLISA signal value/total ERK AlphaLISA signal value. The relative ratio of the phosphorylated ERK for each sample was calculated. The percentage inhibition rates of the compounds on the phosphorylated ERK at each concentration were calculated by comparing the relative value of the phosphorylated ERK with that of the DMSO control well. Then non-linear curve fittings for logarithmic concentration-inhibition rate were performed by the GraphPad Prism 8 analysis software, and the IC50 values of the compounds on the inhibition of the phosphorylated ERK were obtained (Table 2).

SMILES | IC50 [µM]
CCc1cccc2cc(O)cc(-c3ncc4c(N5CC6CCC(C5)N6)nc(OCC5(CN6CCN(CCCC7CCN(C(=O)c8ccc(Cl)c(N9CCC(=O)NC9=O)c8)CC7)CC6)CC5)nc4c3F)c12 [Example 19, 1-(5-(4-(3-(4-((1-(((4-(3,8-diazabicyclo[3.2.1]octan-3-yl)-7-(8-ethyl-3-hydroxynaphthalen-1-yl)-8-fluoropyrido[4,3-d]pyrimidin-2-yl)oxy)methyl)cyclopropyl)methyl)piperazin-1-yl)propyl)piperidine-1-carbonyl)-2-chlorophenyl)dihydropyrimidine-2,4(1H,3H)-dione] | ≤ 0.05
C#Cc1c(F)ccc2cc(O)cc(-c3ncc4c(N5CC6CCC(C5)N6)nc(OCC56CC(CN7CCN(CC8CCC9(CC8)CCN(C(=O)c8ccc(Cl)c(N%10CCC(=O)NC%10=O)c8)CC9)CC7)(C5)C6)nc4c3F)c12 [Example 33, 1-(5-(9-((4-((3-(((4-(3,8-diazabicyclo[3.2.1]octan-3-yl)-7-(8-ethynyl-7-fluoro-3-hydroxynaphthalen-1-yl)-8-fluoropyrido[4,3-d]pyrimidin-2-yl)oxy)methyl)bicyclo[1.1.1]pentan-1-yl)methyl)piperazin-1-yl)methyl)-3-azaspiro[5.5]undecane-3-carbonyl)-2-chlorophenyl)dihydropyrimidine-2,4(1H,3H)-dione] | ≤ 0.05
C#Cc1c(F)ccc2cc(O)cc(-c3ncc4c(N5CC6CCC(C5)N6)nc(OCC5(CN6CCC(COCC7CCN(C(=O)c8ccc(Cl)c(N9CCC(=O)NC9=O)c8)CC7)CC6)CC5)nc4c3F)c12 [Example 13, 1-(5-(4-(((1-((1-(((4-(3,8-diazabicyclo[3.2.1]octan-3-yl)-7-(8-ethynyl-7-fluoro-3-hydroxynaphthalen-1-yl)-8-fluoropyrido[4,3-d]pyrimidin-2-yl)oxy)methyl)cyclopropyl)methyl)piperidin-4-yl)methoxy)methyl)piperidine-1-carbonyl)-2-chlorophenyl)dihydropyrimidine-2,4(1H,3H)-dione] | ≤ 0.05
C#Cc1c(F)ccc2cc(O)cc(-c3ncc4c(N5CC6CCC(C5)N6)nc(OC[C@@H]5CCCN5CCC5CCC6(CC5)CCN(C(=O)c5ccc(Cl)c(N7CCC(=O)NC7=O)c5)CC6)nc4c3F)c12 [Example 32, 1-(5-(9-(2-((S)-2-(((4-(3,8-diazabicyclo[3.2.1]octan-3-yl)-7-(8-ethynyl-7-fluoro-3-hydroxynaphthalen-1-yl)-8-fluoropyrido[4,3-d]pyrimidin-2-yl)oxy)methyl)pyrrolidin-1-yl)ethyl)-3-azaspiro[5.5]undecane-3-carbonyl)-2-chlorophenyl)dihydropyrimidine-2,4(1H,3H)-dione] | 1 to 10
C#Cc1c(F)ccc2cc(O)cc(-c3ncc4c(N5CC6CCC(C5)N6)nc(OCC5(CN6CCN(CC7CCC8(CC7)CCN(C(=O)c7ccc(OC)c(N9CCC(=O)NC9=O)c7)CC8)CC6)CC5)nc4c3F)c12 [Example 14, 1-(5-(9-((4-((1-(((4-(3,8-diazabicyclo[3.2.1]octan-3-yl)-7-(8-ethynyl-7-fluoro-3-hydroxynaphthalen-1-yl)-8-fluoropyrido[4,3-d]pyrimidin-2-yl)oxy)methyl)cyclopropyl)methyl)piperazin-1-yl)methyl)-3-azaspiro[5.5]undecane-3-carbonyl)-2-methoxyphenyl)dihydropyrimidine-2,4(1H,3H)-dione] | ≤ 0.05
C#Cc1c(F)ccc2cc(O)cc(-c3ncc4c(N5CC6CCC(C5)N6)nc(OCC5(CN6CCN(CCCC7CCN(C(=O)c8ccc(OC)c(N9CCC(=O)NC9=O)c8)CC7)CC6)CC5)nc4c3F)c12 [Example 8, 1-(5-(4-(3-(4-((1-(((4-(3,8-diazabicyclo[3.2.1]octan-3-yl)-7-(8-ethynyl-7-fluoro-3-hydroxynaphthalen-1-yl)-8-fluoropyrido[4,3-d]pyrimidin-2-yl)oxy)methyl)cyclopropyl)methyl)piperazin-1-yl)propyl)piperidine-1-carbonyl)-2-methoxyphenyl)dihydropyrimidine-2,4(1H,3H)-dione] | ≤ 0.05
C#Cc1c(F)ccc2cc(O)cc(-c3ncc4c(N5CC6CCC(C5)N6)nc(OCC5(CN6CCN(CC7CCC8(CC7)CCN(C(=O)c7ccc(Br)c(N9CCC(=O)NC9=O)c7)CC8)CC6)CC5)nc4c3F)c12 [Example 29, 1-(5-(9-((4-((1-(((4-(3,8-diazabicyclo[3.2.1]octan-3-yl)-7-(8-ethynyl-7-fluoro-3-hydroxynaphthalen-1-yl)-8-fluoropyrido[4,3-d]pyrimidin-2-yl)oxy)methyl)cyclopropyl)methyl)piperazin-1-yl)methyl)-3-azaspiro[5.5]undecane-3-carbonyl)-2-bromophenyl)dihydropyrimidine-2,4(1H,3H)-dione] | ≤ 0.05
C#Cc1c(F)ccc2cc(O)cc(-c3ncc4c(N5CC6CCC(C5)N6)nc(OCC(C)(C)CN5CCN(CC6CCC7(CC6)CCN(C(=O)c6ccc(OC)c(N8CCC(=O)NC8=O)c6)CC7)CC5)nc4c3F)c12 [Example 26, 1-(5-(9-((4-(3-((4-(3,8-diazabicyclo[3.2.1]octan-3-yl)-7-(8-ethynyl-7-fluoro-3-hydroxynaphthalen-1-yl)-8-fluoropyrido[4,3-d]pyrimidin-2-yl)oxy)-2,2-dimethylpropyl)piperazin-1-yl)methyl)-3-azaspiro[5.5]undecane-3-carbonyl)-2-methoxyphenyl)dihydropyrimidine-2,4(1H,3H)-dione] | ≤ 0.05
CCc1c(F)ccc2cc(O)cc(-c3ncc4c(N5CC6CCC(C5)N6)nc(OCC5(CN6CCN(CCCC7CCN(C(=O)c8ccc(Cl)c(N9CCC(=O)NC9=O)c8)CC7)CC6)CC5)nc4c3F)c12 [Example 22, 1-(5-(4-(3-(4-((1-(((4-(3,8-diazabicyclo[3.2.1]octan-3-yl)-7-(8-ethyl-7-fluoro-3-hydroxynaphthalen-1-yl)-8-fluoropyrido[4,3-d]pyrimidin-2-yl)oxy)methyl)cyclopropyl)methyl)piperazin-1-yl)propyl)piperidine-1-carbonyl)-2-chlorophenyl)dihydropyrimidine-2,4(1H,3H)-dione] | ≤ 0.05
C#Cc1c(F)ccc2cc(O)cc(-c3ncc4c(N5CC6CCC(C5)N6)nc(OCC5(CN6CCN(CCCC7CCC8(CC7)CCN(C(=O)c7ccc(Cl)c(N9CCC(=O)NC9=O)c7)CC8)CC6)CC5)nc4c3F)c12 [Example 7, 1-(5-(9-(3-(4-((1-(((4-(3,8-diazabicyclo[3.2.1]octan-3-yl)-7-(8-ethynyl-7-fluoro-3-hydroxynaphthalen-1-yl)-8-fluoropyrido[4,3-d]pyrimidin-2-yl)oxy)methyl)cyclopropyl)methyl)piperazin-1-yl)propyl)-3-azaspiro[5.5]undecane-3-carbonyl)-2-chlorophenyl)dihydropyrimidine-2,4(1H,3H)-dione] | ≤ 0.05
C#Cc1c(F)ccc2cc(O)cc(-c3ncc4c(N5CC6CCC(C5)N6)nc(OCC5(CN6CCN(CCC7CCC8(CC7)CCN(C(=O)c7ccc(Cl)c(N9CCC(=O)NC9=O)c7)CC8)CC6)CC5)nc4c3F)c12 [Example 18, 1-(5-(9-(2-(4-((1-(((4-(3,8-diazabicyclo[3.2.1]octan-3-yl)-7-(8-ethynyl-7-fluoro-3-hydroxynaphthalen-1-yl)-8-fluoropyrido[4,3-d]pyrimidin-2-yl)oxy)methyl)cyclopropyl)methyl)piperazin-1-yl)ethyl)-3-azaspiro[5.5]undecane-3-carbonyl)-2-chlorophenyl)dihydropyrimidine-2,4(1H,3H)-dione] | ≤ 0.05
Cc1ccc2[nH]ncc2c1-c1ncc2c(N3CC4CCC(C3)N4)nc(OCC3(CN4CCN(CC5CCC6(CC5)CCN(C(=O)c5ccc(Cl)c(N7CCC(=O)NC7=O)c5)CC6)CC4)CC3)nc2c1F [Example 16, 1-(5-(9-((4-((1-(((4-(3,8-diazabicyclo[3.2.1]octan-3-yl)-8-fluoro-7-(5-methyl-1H-indazol-4-yl)pyrido[4,3-d]pyrimidin-2-yl)oxy)methyl)cyclopropyl)methyl)piperazin-1-yl)methyl)-3-azaspiro[5.5]undecane-3-carbonyl)-2-chlorophenyl)dihydropyrimidine-2,4(1H,3H)-dione] | 1 to 10
C#Cc1c(F)ccc2cc(O)cc(-c3ncc4c(N5CC6CCC(C5)N6)nc(OCC5(CN6CCN(CCCC7CCN(C(=O)c8ccc(Cl)c(N9CCC(=O)NC9=O)c8)CC7)CC6)CC5)nc4c3F)c12 [Example 4, 1-(5-(4-(3-(4-((1-(((4-(3,8-diazabicyclo[3.2.1]octan-3-yl)-7-(8-ethynyl-7-fluoro-3-hydroxynaphthalen-1-yl)-8-fluoropyrido[4,3-d]pyrimidin-2-yl)oxy)methyl)cyclopropyl)methyl)piperazin-1-yl)propyl)piperidine-1-carbonyl)-2-chlorophenyl)dihydropyrimidine-2,4(1H,3H)-dione] | ≤ 0.05
